Experimental findings from US7829114B2, “Capsules containing aqueous fill compositions stabilized with derivatized cyclodextrin” (CyDex Pharmaceuticals, Inc., priority 2002, dated 2010) are described below.

This data set in a line: H.S.I.T. on starch capsule. The data set is classed as physicochemical. Conditions: for content in fill composition for an HSIT rating of at least 3: SAE-CD, PVP and water fill, VEGAGEL hard shell capsule. From the text:
FIG. 3 depicts a chart of the relationship between concentration of SBE cyclodextrin and H.S.I.T. (HALF-SHELL integrity test) rating for HGC (hard gelatin capsule From […]), HGS (hard gelatin capsule from SHIONOGI), HPC (hard hydroxypropyl methylcellulose shell from […]), and HPS (hard hydroxypropyl methylcellulose shell from SHIONOGI), and SSS (soft starch shell […]). The stability obtained was dependent upon the composition of the capsule gel.
FIGS. 10a-10i depict ternary graphs correlating the concentration of SAE-CD, water and PVP in a fill composition to the H.S.I.T. rating of a soft shell capsule exposed to the fill composition. Aqueous fill solutions comprising differing amounts of PVP, SAE-CD and water were prepared. The stability tests were conducted as described below. The capsules described herein were used: SHIONOGI HGC (hard gelatin capsule) (FIG. 10A), […] HPMC hard shell capsule (FIG. 10b), SHIONOGI HPMC hard shell capsule (FIG. 10C), […] HGC (FIG. 10D), VEGAGEL hard shell capsule (FIG. 10E), hydrophilic fill-grade CARDINAL SGC (soft gelatin capsule) (FIG. 10f), lipophilic fill-grade CARDINAL SGC (FIG. 10g), hydrophilic fill-grade BANNER SGC (FIG. 10h), and lipophilic fill-grade BANNER SGC (FIG. 10i). No other shell-stabilizing material(s) was (were) included in the fill compositions evaluated. The results varied according to the capsule used. Stabilized aqueous fill composition-containing capsule formulations can be achieved with each capsule if one or more of the following fill compositions detailed below are used. • 1. […]

With sulfobutyl ether cyclodextrin [SAE-CD], the “content in fill composition for an HSIT rating of at least 3” value was “≧6%”. For the same compound, the “stability provided to capsules” value (SBE concentration of about ≧30% wt., soft starch capsules, FIG. 3) is on record as “at least a one-week stability”.

On to `O` [Water], for which the “content in fill composition for an HSIT rating of at least 3” value is listed as “≦64%”.
